{"source": "patent US20250387360A1", "about": "“Methods and Compositions for Treatment of Addiction” (University of Connecticut, priority 2024, published 2025)", "assay_type_in_all_cases": "in vivo, mouse", "key": {"[1]": {"tested_on": "acetylation of histone H3 and H4 in the amygdala", "test": "Histone H3 and H4 acetylation ELISA in amygdala", "settings": "n=7 mice/group, vs NaCl", "experimental": "Amygdala samples were thawed, and the histone fractions were prepared using a commercial histone extraction kit (Abcam, Cambridge, UK) following manufacturers instruction. The bulk acetylation of histone H3 and H4 was determined using commercial ELISA kits according to the manufacturer's instructions (Abcam, Cambridge, UK). The OD of the samples was measured using a 96 well plate reader at 450 nm (iMark™ Microplate Absorbance Reader; Biorad, CA, USA). The amounts of acetyl histone H3 and H4 were measured by comparing to the kit supplied standards.\nThe total acetylation levels of histone H3 and H4 were quantified in the amygdala of mice subjected to the DID paradigm following supplementation with sodium valerate or NaCl (n=7 mice/group)."}, "C57BL/6J mice": {"tested_on": "C57BL/6J mice", "test": "Open field activity test (anxiety-like behavior)", "settings": "after 10 days supplementation, 10 min exploration, n=10 mice/group", "experimental": "The open field activity test was conducted to assess the impact of sodium valerate supplementation on exploratory and anxiety-like behavior. This test is a widely used method for analyzing locomotor ability and anxiety-related emotional behaviors in C57BL/6J mice. The open field activity chamber, constructed from white Plexiglass and illuminated with daylight, had dimensions of 37.5 cm height×40 cm length×40 cm width. General locomotor activity was recorded for 10 min by an overhead camera and analyzed using an automated video tracking system (ANY-maze v.4.6, Stoelting, IL, U.S.A, RRID:SCR_014289). The primary variables of interest included the total distance traveled (cm), the number of entries in the center area (20 cm length×20 cm width), and the percentage of time spent in the center area of the open field.\nThe effects of sodium valerate and NaCl was examined on anxiety-like behavior (n=10 mice/group) after 10 days of supplementation by open-field activity test."}, "[2]": {"tested_on": "gene expression in the amygdala", "test": "Bulk RNA-seq of amygdala (DESeq2, IPA)", "experimental": "Total RNA was isolated from amygdala samples using the Direct-zol RNA Microprep Kit (Zymoresearch, CA, U.S.A). Quantification of total RNA and assessment of its purity ratios were performed using the NanoDrop 2000 spectrophotometer (Thermo Fisher Scientific, MA, U.S.A, RRID:SCR_018042).\nTotal RNA libraries were prepared for transcriptome sequencing using the Zymo-Seq RiboFree Stranded Total RNA library preparation kit (Zymo Research, CA, U.S.A) following the manufacturer's instructions. Further, rRNAs were depleted as part of the sample preparation process. Libraries were validated for length and adapter dimer removal using the Agilent TapeStation 4200 D1000 High Sensitivity assay (Agilent Technologies, CA, U.S.A, RRID:SCR_019398). Subsequent quantification and normalization were carried out using the dsDNA High Sensitivity Assay for Qubit 3.0 (Life Technologies, CA, U.S.A, RRID:SCR_020311). Sample libraries were then prepared for Illumina sequencing following the manufacturer's protocol (Illumina, CA, U.S.A). All the individual samples were consolidated into a single sequencing pool, with proportions targeting 30M reads/sample, and sequenced on the Illumina NovaSeq 6000 platform (Illumina, CA, U.S.A, RRID:SCR_016387).\nRaw reads were subjected to adaptor removal and quality control including filtering of low-quality reads. Filtered reads were mapped to the mouse reference genome using STAR (Spliced Transcripts Alignment to a Reference, RRID:SCR_004463). Gene expression level was estimated by transcripts per million of transcript sequences. Principal component analysis (PCA) was performed to visualize overall gene expression differences between compared groups in several major principal components. The analysis of differential gene expression (DEG) was performed using the DESeq2 (RRID:SCR_015687) package for RNA-Seq data. […] The Benjamini-Hochberg procedure, also referred to as the false discovery rate (FDR) method, was applied to correct p-values for multiple testing. We utilized Ingenuity Pathway Analysis (IPA, RRID:SCR_008653) to predict pathways associated with differentially expressed genes and employed Gene Set Enrichment Analysis (GSEA, RRID:SCR_003199) to visualize the outcomes in a heatmap. Right tailed Fisher's exact test was performed in the IPA for identifying significant canonical pathways.\nTo gain a molecular understanding of the effects of sodium valerate supplementation on brain function, bulk RNA sequencing (RNA-seq) analysis was performed on amygdala tissue of mice that underwent the DID paradigm after sodium valerate or NaCl (n=7 mice/group) supplementation. […] DESeq2 identified a total of 301 DEG at the adjusted p value <0.25, 126 genes at the adjusted p value <0.10, and 75 genes at the adjusted p value <0.05. […] Among these genes, the top five protein coding genes with the highest expression in sodium valerate-supplemented mice are Kcna10 (potassium voltage-gated channel, shaker-related subfamily, member 10), Pln (phospholamban), H60C (histocompatibility antigen 60c), Idi1 (isopentenyl-diphosphate delta isomerase, pseudogene 3) and Snord34 (small nucleolar RNA, C/D box 34). […] PTGS2 is a prostanoids producer that responds to inflammation. Its downregulation in the sodium valerate supplemented group (log2Fold change: −0.65; adjusted p=0.0002) indicates an anti-inflammatory effect of valerate. […] As SCFAs may function in the brain through G protein-coupled receptors (GPCRs), gene expression levels of 85 GPRs were examined in the RNAseq data. […] IPA was performed to identify changes to the molecular signaling pathways and to comparatively assess the sodium valerate effects in the amygdala. […]"}, "male mice (C57BL/6J)": {"tested_on": "male mice (C57BL/6J)", "test": "Six-week repeated DID protocol", "experimental": "In this study, the impact of sodium valerate treatment on ethanol intake and blood ethanol concentration (BEC) was assessed using a six-week Drinking in the Dark (DID) protocol in male mice (C57BL/6J). All mice (n=30) were single-housed and had ad libitum access to food and their respective drinking water. Water bottles were removed 30 minutes prior to and throughout each DID session. During the two-week baseline period, all mice underwent a standardized DID paradigm consisting of a 4-day cycle each week: 2-hour access to 20% ethanol on days 1-3, followed by a 4-hour session on day 4. Starting in week three, mice were randomly assigned to one of three groups (10 mice per group): (1) Valerate-i.p., which received intraperitoneal injections of sodium valerate (200 mg/kg body weight) 30 minutes before each DID session; (2) Valerate-drinking water, which received 200 mM sodium valerate in drinking water for 30 minutes before to each DID session; and (3) Control, which received no valerate treatment. Ethanol consumption was evaluated on day 4 of each week (Wecks 1-6), and BEC was measured on day 4 of weeks 2, 4, and 6."}}}
{"smiles": "CCCCC(=O)[O-].[Na+]", "note": "[sodium valerate]", "values": [{"measurement": "increase in H3 acetylation in the amygdala", "setting": "[1]", "result": "not statistically significant"}, {"measurement": "H4 acetylation in the amygdala", "setting": "[1]; p<0.01", "result": "significantly increased"}, {"measurement": "distance travelled", "setting": "C57BL/6J mice", "result": "did not lead to a significant change"}, {"measurement": "number of entries in center (mean±SD)", "setting": "C57BL/6J mice; p=0.01 vs NaCl", "result": "57.50±5.48"}, {"measurement": "percentage of time spent in center area (mean±SD)", "setting": "C57BL/6J mice; p=0.03 vs NaCl", "result": "15.29±4.82"}, {"measurement": "MAPKs at the RNA level", "setting": "[2]", "result": "downregulated"}, {"measurement": "six mitochondrial genes encoding subunits of NADH dehydrogenase (Complex I)", "setting": "[2]", "result": "consistently upregulated"}, {"measurement": "downregulated genes among the 75 significant DEG", "setting": "[2]; adjusted p <0.05", "result": 28}, {"measurement": "upregulated genes among the 75 significant DEG", "setting": "[2]; adjusted p <0.05", "result": 47}, {"measurement": "PTGS2 expression, log2Fold change", "setting": "[2]; adjusted p=0.0002", "result": "−0.65"}, {"measurement": "GPR158 expression, log2Fold change", "setting": "[2]; unadjusted p<0.01", "result": "−0.26"}, {"measurement": "Gpr56 expression, log2Fold change", "setting": "[2]; unadjusted p<0.01", "result": 0.28}, {"measurement": "ethanol consumption week 5, Valerate-drinking water", "setting": "male mice (C57BL/6J); 200 mM in drinking water for 30 min before each DID session from week 3, n=10, p<0.05 vs control", "result": "significantly reduced"}, {"measurement": "BEC week 6, Valerate-drinking water", "setting": "male mice (C57BL/6J); 200 mM in drinking water for 30 min before each DID session, p<0.01 vs control", "result": "significant reductions"}, {"measurement": "ethanol consumption week 5, Valerate-i.p.", "setting": "male mice (C57BL/6J); 200 mg/kg i.p. 30 min before each DID session from week 3, n=10, p<0.01 vs control", "result": "significantly reduced"}, {"measurement": "BEC week 6, Valerate-i.p.", "setting": "male mice (C57BL/6J); 200 mg/kg i.p. 30 min before each DID session, p<0.01 vs control", "result": "significant reductions"}, {"measurement": "ethanol consumption week 6, Valerate-i.p.", "setting": "male mice (C57BL/6J); 200 mg/kg i.p. 30 min before each DID session, p<0.1 vs control", "result": "trend toward reduced ethanol consumption"}, {"measurement": "effects during the initial weeks of treatment", "setting": "male mice (C57BL/6J); both valerate groups", "result": "no significant effects"}]}
